What all share (assay type): cell-based
Holding throughout (details): 72 hours

The test system of test [1] is LOVO (cell lines of human colon adenocarcinoma). Nature of the test: Test on cell proliferation (MTT test), LOVO. Here is the method:
(§1) a. Eight tumoral cell lines are used in this study: L1210 (mouse lymphocytic leukemia), HCT15 and LOVO (cell lines of human colon adenocarcinoma), A549 (human lung carcinoma), A172, U373 et U87 (human glioblastoma). All these lines are obtained from the American Type Culture Collection (ATCC), Rockville, Md. The L1210 cell cultures in suspension are cultured in Dulbecco's modified Eagle's medium (DMEM) (BioWhitaker, Verviers, Belgium) together with 10% of foetal calf serum inactivated by heating, 2 mM of glutamine, 50 μg/ml of penicillin and 50 μg/ml of streptomycin. The HT29 cells are cultured in mono-layer cultures in a McCoy 5a medium (Gibco, Paisley, United Kingdom) together with 10% of foetal calf serum inactivated by heat plus 2 mM of glutamine and 50 μg/ml of gentamycin. The other cells are cultured in an Earle's modified essential medium (EMEM; Gibco, Paisley, United Kingdom) together with 5% foetal calf serum inactivated by heat, 2 mM of glutamine, 50 U/ml of penicillin and 50 μg/ml of streptomycin. All the cell lines are cultured at 37° C. in a humidified atmosphere containing 95% air and 5% CO2.
(§2) Inhibition of the tumor cell line proliferation is determined using an MTT test. 1500 L1210 cells in a culture medium (according to the needs of the cell medium) are seeded in a well of a micro-well plate (tissue culture level: 96 wells, flat bottom) 24 hours before treatment with the compounds to be tested. For these dose-response studies, the cells are incubated with each of the compounds to be tested or their corresponding solvent (controls) for 48 hours over a final concentration range of 1.10^−10 to 1.10^−4 M. All the compounds are dissolved just before use in dimethylsulphoxide (DMSO) at a concentration of 50 mM. Other dilutions of the medicaments are carried out in the culture medium. The final concentration of DMSO never exceeds 0.2% (v/v). As controls, the solutions of medicaments are replaced with the solvent which is diluted successively in the same way as the compounds to be tested.
(§3) After the incubation period, the labeling reagent MTT (3-[4,5-dimethylthiazol-2-yl]-2,5-diphenyltetrazolium bromide; Thiazol blue, Sigma M 565, Sigma, St Louis, Mo.) is added at a final concentration of 0.3 mg/ml to each well. The cells are incubated for 4 hours at 37° C. in a humidified atmosphere. This stage allows the mitochondrial dehydrogenase of the living cells to convert the yellow tetrazolium salt MTT into crimson formazan crystals. The supernatant part is eliminated and the formazan crystals formed are solubilized with DMSO. The resultant coloured solution is quantified by absorbance at 570 nm by using a multi-cuvette scanning spectrophotometer. The data concerning the proliferation is expressed as a percentage of living cells in the treated wells, divided by the living cells in the controls. Each point represents the average of three independent experiments, each experiment represents six determinations.
(§4) For the other cell lines (HCT15, LOVO, A549, A172, U373, U87), 1000 to 2000 cells are seeded in the well of a micro-well plate 24 hours before medicinal treatment. […]
(§5) The results are expressed as percentages of the calculated proliferation by the optical density (OD) of the cells treated with a medicament divided by the OD of the control cells (cells treated with DMSO). As represented in Table II, the compounds to be tested have inhibited the proliferation of cells in a dose-dependent manner.

Test [2] concerns A549 (human lung carcinoma). Nature of the test: Test on cell proliferation (MTT test), A549. The protocol:
as §1, §2, §3, §4, §5

A further test has as its system U87 (human glioblastoma). As to the kind of experiment: Test on cell proliferation (MTT test), U87. Here is the method: as §1, §2, §3, §4, §5

`CCC1(O)CC(=O)OCc2c1cc1n(c2=O)Cc2cc3ccccc3nc2-1` (stereo not drawn) [Example 3, 5-ethyl-5-hydroxy-1,4,5,13-tetrahydro-3H,15H-oxepino [3′,4′:6,7]indolizino[1,2-b]quinoline-3,15-dione]: the “PERCENTAGE OF CELL PROLIFERATION” value in test [1] (0.1 nM) amounted to 108.00%; in test [1] (1 nM) it was 86.00%; in test [1] (10 nM), 54.00%; in test [1] (100 nM) it was 31.00%; in test [1] (1 000 nM), 23.00%; in test [1] (10 000 nM) it was 10.00%. Further, the “PERCENTAGE OF CELL PROLIFERATION” value in test [1] (100 000 nM) worked out at 12.00%; in test [2] (0.1 nM), 132.00%; in test [2] (1 nM) it was 111.00%; in test [2] (10 nM) it was 75.00%; in test [2] (100 nM), 39.00%; in test [2] (1 000 nM), 35.00%. Also, the “PERCENTAGE OF CELL PROLIFERATION” value in test [2] (10 000 nM) amounted to 10.00%; in test [2] (100 000 nM) it was 11.00%; in the test with U87 (human glioblastoma) (0.1 nM), 108.00%; with U87 (human glioblastoma) (1 nM) it was 85.00%; with U87 (human glioblastoma) (10 nM), 42.00%; in the test with U87 (human glioblastoma) (100 nM) it was 23.00%. The results for the “PERCENTAGE OF CELL PROLIFERATION” value in the test on U87 (human glioblastoma) (1 000 nM), with U87 (human glioblastoma) (10 000 nM) and with U87 (human glioblastoma) (100 000 nM) were 15.00%, 5.00% and 6.00%, respectively.
Take `CCC(O)(CC(=O)O)c1cc2n(c(=O)c1CO)Cc1cc3ccccc3nc1-2` (stereo not drawn) [Example 4, 3-hydroxy-3-[8-(hydroxymethyl)-9-oxo-9,11-dihydroindolizino [1,2-b]quinolin-7-yl]pentanoic acid]: the “PERCENTAGE OF CELL PROLIFERATION” value came out at 80.00% in test [1] (0.1 nM); 75.00% in test [1] (1 nM); 79.00% in test [1] (10 nM); 69.00% in test [1] (100 nM); 38.00% in test [1] (1 000 nM); 21.00% in test [1] (10 000 nM). The “PERCENTAGE OF CELL PROLIFERATION” value in test [1] (100 000 nM) was 5.00%; in test [2] (0.1 nM), 71.00%; in test [2] (1 nM) it was 76.00%; in test [2] (10 nM), 71.00%; in test [2] (100 nM), 56.00%; in test [2] (1 000 nM), 36.00%. Also, the “PERCENTAGE OF CELL PROLIFERATION” value in test [2] (10 000 nM) came to 22.00%; in test [2] (100 000 nM), 12.00%; in the test with U87 (human glioblastoma) (0.1 nM), 98.00%; in the test with U87 (human glioblastoma) (1 nM) it was 101.00%; with U87 (human glioblastoma) (10 nM) it was 98.00%; in the test on U87 (human glioblastoma) (100 nM) it was 74.00%. The “PERCENTAGE OF CELL PROLIFERATION” value was 11.00% in the test with U87 (human glioblastoma) (1 000 nM), 6.00% with U87 (human glioblastoma) (10 000 nM) and 2.00% in the test with U87 (human glioblastoma) (100 000 nM).
For `CCc1c2c(nc3ccccc13)-c1cc3c(c(=O)n1C2)COC(=O)CC3(O)CC` (stereo not drawn) [Example 9, 5,12-diethyl-5-hydroxy-1,4,5,13-tetrahydro-3H,15H-oxepino[3′,4′:6,7]indolizino[1,2-b]quinoline-3,15-dione], the “PERCENTAGE OF CELL PROLIFERATION” value in test [1] (0.1 nM) is reported as 74.00%; in test [1] (1 nM), 85.00%; in test [1] (10 nM), 44.00%; in test [1] (100 nM) it was 31.00%; in test [1] (1 000 nM) it was 21.00%; in test [1] (10 000 nM) it was 4.00%. For the same molecule, the “PERCENTAGE OF CELL PROLIFERATION” value is recorded as 2.00% in test [1] (100 000 nM); 91.00% in test [2] (0.1 nM); 88.00% in test [2] (1 nM); 50.00% in test [2] (10 nM); 31.00% in test [2] (100 nM); 23.00% in test [2] (1 000 nM). In addition, the “PERCENTAGE OF CELL PROLIFERATION” value came to 5.00% in test [2] (10 000 nM); 3.00% in test [2] (100 000 nM); 105.00% with U87 (human glioblastoma) (0.1 nM); 72.00% in the test on U87 (human glioblastoma) (1 nM); 14.00% with U87 (human glioblastoma) (10 nM); 7.00% with U87 (human glioblastoma) (100 nM). Further, the results for the “PERCENTAGE OF CELL PROLIFERATION” value in the test on U87 (human glioblastoma) (1 000 nM), with U87 (human glioblastoma) (10 000 nM) and in the test on U87 (human glioblastoma) (100 000 nM) were 4.00%, 2.00% and 6.00%, respectively.
In the case of `CCc1c2c(nc3ccccc13)-c1cc(C(O)(CC)CC(=O)O)c(CO)c(=O)n1C2` (stereo not drawn) [Example 10, 3-[12-ethyl-8-(hydroxymethyl)-9-oxo-9,11-dihydroindolizino[1,2-b]quinolin-7-yl]-3-hydroxypentanoic acid], the “PERCENTAGE OF CELL PROLIFERATION” value in test [1] (0.1 nM) was 71.00%; in test [1] (1 nM) it was 76.00%; in test [1] (10 nM) it was 77.00%; in test [1] (100 nM), 52.00%; in test [1] (1 000 nM) it was 29.00%; in test [1] (10 000 nM), 18.00%. For the same molecule, the “PERCENTAGE OF CELL PROLIFERATION” value in test [1] (100 000 nM) was 4.00%; in test [2] (0.1 nM), 71.00%; in test [2] (1 nM) it was 76.00%; in test [2] (10 nM), 71.00%; in test [2] (100 nM), 56.00%; in test [2] (1 000 nM), 36.00%. For the same molecule, the “PERCENTAGE OF CELL PROLIFERATION” value in test [2] (10 000 nM) came to 22.00%; in test [2] (100 000 nM), 7.00%; with U87 (human glioblastoma) (0.1 nM), 96.00%; in the test with U87 (human glioblastoma) (1 nM), 79.00%; with U87 (human glioblastoma) (10 nM), 89.00%; with U87 (human glioblastoma) (100 nM), 17.00%. The “PERCENTAGE OF CELL PROLIFERATION” value in the test on U87 (human glioblastoma) (1 000 nM) worked out at 6.00%; in the test on U87 (human glioblastoma) (10 000 nM), 5.00%; with U87 (human glioblastoma) (100 000 nM), 2.00%.
Take `CCC1(O)CC(=O)OCc2c1cc1n(c2=O)Cc2cc3cc4c(cc3nc2-1)OCCO4` (stereo not drawn) [Example 11, 8-ethyl-8-hydroxy-2,3,8,9,12,15-hexahydro-10H,13H-[1,4]dioxino [2,3-g]oxepino[3′,4′:6,7]indolizino[1,2-b]quinoline-10,13-dione]: the “PERCENTAGE OF CELL PROLIFERATION” value came out at 66.00% in test [1] (0.1 nM); 42.00% in test [1] (1 nM); 29.00% in test [1] (10 nM); 21.00% in test [1] (100 nM); 8.00% in test [1] (1 000 nM); 3.00% in test [1] (10 000 nM). For the same molecule, the “PERCENTAGE OF CELL PROLIFERATION” value came out at 3.00% in test [1] (100 000 nM); 82.00% in test [2] (0.1 nM); 44.00% in test [2] (1 nM); 29.00% in test [2] (10 nM); 26.00% in test [2] (100 nM); 4.00% in test [2] (1 000 nM). For the same molecule, the “PERCENTAGE OF CELL PROLIFERATION” value in test [2] (10 000 nM) amounted to 3.00%; in test [2] (100 000 nM), 2.00%; in the test with U87 (human glioblastoma) (0.1 nM), 40.00%; with U87 (human glioblastoma) (1 nM) it was 21.00%; with U87 (human glioblastoma) (10 nM), 12.00%; with U87 (human glioblastoma) (100 nM), 6.00%. Further, the “PERCENTAGE OF CELL PROLIFERATION” value in the test on U87 (human glioblastoma) (1 000 nM), in the test with U87 (human glioblastoma) (10 000 nM) and with U87 (human glioblastoma) (100 000 nM) was 1.00% each time.

For the origin of these results see patent US6815546B2, “Analogues of camptothecin, their use as medicaments and the pharmaceutical compositions containing them” (Societe de Recherches et d'Applications Scientifiques …, priority 1995, dated 2004).
